Laboratory results published in article PMC4919066 (PLoS Pathogens, 2016).
Counter-ions that a name gives are not always drawn.

Experiments:
[1] = Cell viability, MTT-based colorimetric assay; conditions: human, non-infected human foreskin fibroblasts (HFFs), cell viability after 72 h
Protocol: Cell viability was determined by an MTT-based colorimetric assay (Sigma-Aldrich), and performed at the same time points as the antiviral assay.

HCMV Towne = assay: HCMV plaque reduction assay in HFFs; assay type: cell-based, Human Cytomegalovirus
Protocol: Human Foreskin Fibroblasts (HFFs) passage 12–16 (ATCC, CRL-2088) and mouse embryonic fibroblasts (MEFs) passage 9–14 (ATCC, CRL-1658) were grown in Dulbecco's Modified Eagle Medium (DMEM) containing 10% fetal bovine serum (FBS) (Gibco, Carlsbad, CA) in a 5% CO2 incubator at 37°C. Infection with HCMV or HSV was performed in HFFs, and infection with mouse CMV was performed in MEFs. For HCMV, cells were seeded in either a 96-well plate or 100 mm culture plates (Corning Costar, Sigma Aldrich) at 0.5 or 2 million cells /plate. Following 90 minute adsorption, media was removed and cells were washed with PBS. Media containing 4% FBS and compounds were added to each well. Infected treated HFFs were collected at 72 hpi and lysates were assayed for luciferase activity using a luciferase assay kit (Promega, Madison, WI) on GloMax-Multi+ Detection System (Promega). In second cycle assays, supernatants were collected from all conditions of the first cycle at 96 hpi and used for infection of fresh HFFs in 96-well plates. Luciferase activity was measured 72 h following second cycle infection. For HSV1-KOS/Dlux/oriS, a luciferase assay was performed at 24 hpi. Plaque assays were performed with clinical isolates of HSV2 and HCMV Towne (ATCC VR-977). HFFs were seeded at […] in 12-well plates and infected 24 h later with HSV2 at 200 PFU/well. For HCMV or MCMV, HFFs or MEFs were seeded at 0.5 or 2 million cells /plate in a 12-well plate and infected 24 hours later at 100 PFU/well. Following virus adsorption (60 min and 90 min for HSV and HCMV, respectively), virus was aspirated, and DMEM containing 4% fetal bovine serum (FBS) with (for HSV) or without (for HCMV/MCMV) 0.5% carboxymethyl-cellulose, were added with the compounds at indicated concentrations into triplicate wells. After incubation at 37°C for 10 days (for HCMV), 3 days for MCMV or 2 days (for HSV), the overlay was removed and plaques were counted after crystal violet staining.

p21 = assay: qRT-PCR for p21; assay type: cell-based, human; conditions: emetine 75 nM, infected high-density cells
Protocol: Total RNA was isolated from cultured cells using RNeasy Mini kit (Qiagen). RevertAid first strand cDNA synthesis kit (Fermentas life sciences, Cromwell Park, MD) was used to synthesize first strand cDNA from total RNA using oligo-dT primers. Negative RT reactions were included to ensure the specificity of qRT-PCR reactions. Synthesis of first strand cDNA from mRNA template was carried out at 42°C for 1 h. Quantitative RT-PCR was performed in triplicates using specific primers for p21 (F: 5’ […] 3’; R: 5’ […] 3’) and SYBR green (Fermentas life science) with two-step cycling protocol (95°C for 15 s, 60°C for 1 min). GAPDH (F: 5’ […] 3’; R: 5’ […] 3’) was used as the internal control.

MDM2-p53 = assay: Co-immunoprecipitation MDM2-p53; assay type: cell-based, human; conditions: emetine 75 nM, infected high-density cells, 24 hpi, MG132
Protocol: Non-infected, infected or emetine-treated HFFs were treated with MG132 (10 μM) for 12h. Cells were harvested after 24 hpi and lysed with IP buffer containing 150 mM NaCl, 50mM Tris pH 7.5, 2 mM EDTA, 0.5% TritonX-100 and 0.5% NP-40-40. 1 mg of lysate was precleared with bead slurry for 30 min. The precleared lysates were incubated with anti-MDM2 (2 μg) antibody overnight. The antibody complexes were isolated using protein A/G beads (Santa Cruz), washed three times with 50% IP buffer. The immunoprecipitate-protein A/G beads were boiled in SDS sample buffer, and the supernatant was analyzed on SDS-PAGE gels after immunoblotting as described previously. 1% of the cell lysate used for IP was loaded on gels as ‘Input’. Confirmatory reverse IPs were performed as described in each experiment. Isotype control antibodies included: rabbit IgG polyclonal, mouse IgG2a kappa and mouse IgG2b kappa monoclonal (Abcam). Mouse monoclonal RPS19 antibody (Abcam) served as an additional negative control for the IPs. Densitometry analysis was performed to determine relative ratio of immunoprecipitated protein to its input level.

HCMV = assay: Anti-HCMV activity in RPS14 knockdown cells (sh-RPS14); assay type: cell-based, Human Cytomegalovirus; conditions: emetine 75 nM, luciferase, plaque reduction, viral proteins at 72 hpi
Protocol: Human Foreskin Fibroblasts (HFFs) passage 12–16 (ATCC, CRL-2088) and mouse embryonic fibroblasts (MEFs) passage 9–14 (ATCC, CRL-1658) were grown in Dulbecco's Modified Eagle Medium (DMEM) containing 10% fetal bovine serum (FBS) (Gibco, Carlsbad, CA) in a 5% CO2 incubator at 37°C. Infection with HCMV or HSV was performed in HFFs, and infection with mouse CMV was performed in MEFs. For HCMV, cells were seeded in either a 96-well plate or 100 mm culture plates (Corning Costar, Sigma Aldrich) at 0.5 or 2 million cells /plate. Following 90 minute adsorption, media was removed and cells were washed with PBS. Media containing 4% FBS and compounds were added to each well. Infected treated HFFs were collected at 72 hpi and lysates were assayed for luciferase activity using a luciferase assay kit (Promega, Madison, WI) on GloMax-Multi+ Detection System (Promega). […] Luciferase activity was measured 72 h following second cycle infection. […] After incubation at 37°C for 10 days (for HCMV), 3 days for MCMV or 2 days (for HSV), the overlay was removed and plaques were counted after crystal violet staining.
Human TRC lentiviral shRNA constructs (Sigma-Aldrich) were used for RPS14 knockdown (KD) in HFFs. […] Control HFFs and RPS14 KD HFFs were counted and equal number of cells was plated prior to infection or treatment.

CC[C@H]1CN2CCc3cc(OC)c(OC)cc3[C@@H]2C[C@@H]1C[C@H]1NCCc2cc(OC)c(OC)cc21 [emetine, emetine dihydrochloride hydrate]
CC50 at 72 h [1]: 8 ± 0.56 µM | EC50 (HCMV Towne; Human betaherpesvirus 5, read-out: Mean EC50 ± SD): 0.068 µM | reduction in the number and size of plaques (HCMV Towne; emetine 75 nM, 2 million cells/plate as compared to 0.5 million cells/plate): 30 fold | increase in p21 mRNA (p21; 24 hpi): 5.4 fold | increase in p21 mRNA (p21; 72 hpi): 6.7 fold | interaction between MDM2 and p53 (MDM2-p53): disrupted | HCMV inhibition in high-density sh-RPS14 cells (HCMV): unable to inhibit HCMV
